In patent US7405240B2, “Substituted cyclopentanes or cyclopentanones as therapeutic agents” (Allergan, Inc., priority 2006, dated 2008):

Legend:
normotensive dogs = test: Intraocular pressure and ocular surface hyperemia in normotensive dogs; format: in vivo, dog; set-up: maximum OSH score: scale not given here; settings: once daily for 5 days
Experimental: (§1) (Z)-7-[(1R,2S,3R,5R)-5-Chloro-2-(3,5-dichloro-phenoxymethyl)-3-hydroxy-cyclopentyl]-hept-5-enoic acid (15b) was tested at multiple concentrations in normotensive dogs, dosing once daily for 5 days. At 0.05%, the maximum IOP decrease from baseline was 4.3 mmHg (30%) at 6 h; the maximum OSH score was 0.6 at 6 h. […] This compound was also tested in laser-induced hypertensive monkeys, using one single day dose. At 0.1%, the maximum IOP decrease from baseline was 6 mmHg (19%) at 6 h.
(§2) (Z)-7-[(1R,2S,3R,5R)-5-Chloro-2-(3,5-dichloro-phenoxymethyl)-3-hydroxy-cyclopentyl]-hept-5-enoic acid isopropyl ester (42b) was tested in normotensive dogs at 0.05%, dosing once daily for 5 days. The maximum intraocular pressure (IOP) decrease from baseline was 3 mmHg (19%) at 6 h; the maximum ocular surface hyperemia (OSH) score was 0.6 at 74 h. This compound was also tested in laser-induced hypertensive monkeys, using one single day dose. At 0.01%, the maximum IOP decrease from baseline was 6 mmHg (16%) at 6 h.

[1] = test system: laser-induced hypertensive monkeys; test: Intraocular pressure in laser-induced hypertensive monkeys; format: in vivo, monkey; settings: one single day dose
Experimental: as §1, §2

hEP4 [2] = molecular target: T1, hEP4 (Homo sapiens, UniProt P35408); test: Radioligand binding, EP4 receptor; set-up: expressed in transfected cells; host or cells: HEK-293; settings: [3H]PGE2, HEK-293 cells expressing EP4
T1 sequence (P35408 whole entry): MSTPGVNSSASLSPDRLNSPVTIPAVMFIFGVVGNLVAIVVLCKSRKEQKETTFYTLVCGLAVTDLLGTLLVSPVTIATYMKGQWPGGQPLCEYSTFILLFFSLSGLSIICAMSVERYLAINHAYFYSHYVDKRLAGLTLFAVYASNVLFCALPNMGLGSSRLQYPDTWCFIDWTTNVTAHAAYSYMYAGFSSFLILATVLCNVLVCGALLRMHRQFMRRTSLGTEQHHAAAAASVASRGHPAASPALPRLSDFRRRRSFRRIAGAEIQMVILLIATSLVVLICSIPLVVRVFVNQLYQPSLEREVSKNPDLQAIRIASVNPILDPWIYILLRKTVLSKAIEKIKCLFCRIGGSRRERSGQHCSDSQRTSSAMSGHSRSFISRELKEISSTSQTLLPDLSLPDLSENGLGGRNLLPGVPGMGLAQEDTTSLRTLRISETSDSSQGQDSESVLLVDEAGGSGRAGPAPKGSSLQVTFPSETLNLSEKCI
Summary of the method: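 HEK-293 membranes stably expressing human EP4, in TME buffer pH 7.4; competition vs 5 nM [3H]-PGE2, 60 min at 25 °C, stopped by GF/B filtration. Non-specific binding defined with 10^−5 M unlabeled PGE2; duplicates, at least three experiments.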

hEP2 [3] = molecular target: T2, hEP2 (Homo sapiens, UniProt P43116); test: FLIPR calcium signal, hEP2; format: cell-based; set-up: expressed in transfected cells; host or cells: HEK-293(EBNA); settings: HEK-293(EBNA) cells expressing hEP2/Gqs5
T2 sequence (P43116 whole entry): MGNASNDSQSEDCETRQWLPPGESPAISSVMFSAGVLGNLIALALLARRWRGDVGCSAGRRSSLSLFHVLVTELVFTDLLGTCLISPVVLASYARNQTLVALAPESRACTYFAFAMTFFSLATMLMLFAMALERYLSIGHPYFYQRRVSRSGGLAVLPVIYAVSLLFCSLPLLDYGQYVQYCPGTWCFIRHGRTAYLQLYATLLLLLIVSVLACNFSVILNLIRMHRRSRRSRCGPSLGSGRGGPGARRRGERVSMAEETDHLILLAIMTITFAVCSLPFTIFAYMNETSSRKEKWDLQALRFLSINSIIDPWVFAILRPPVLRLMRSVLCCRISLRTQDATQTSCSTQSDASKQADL
Summary of the method: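 HEK-293(EBNA) cells stably expressing a single human prostaglandin receptor (hDP/Gqs5 chimera for DP), Fluo-4 AM loaded, in HBSS-HEPES pH 7.4 at 37 °C. Peak calcium fluorescence scaled to buffer and receptor standard agonist; 10^−5 M single-point or 10^−5–10^−11 M curves, duplicates, n≥3.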

hEP2 [4] = molecular target: T2, hEP2; test: cAMP assay, hEP2; format: cell-based
hEP2 [5] = molecular target: T2, hEP2; test: Competition binding, [3H]PGE2, human EP2 receptors; set-up: expressed in transfected cells; host or cells: HEK 293; settings: [3H]PGE2, HEK 293 cells stably expressing human EP2; read-out: hEP2 Ki
Summary of the method: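 HEK 293 membranes or cells stably expressing human EP2 were incubated with 10 nM [3H]PGE2 and test compound in HBSS/20 mM Hepes pH 7.3, 60 min at 23° C, then filtered. Non-specific binding defined with 10 μM PGE2; IC50 from single-site fit converted to Ki using KD 40 nM.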

hEP4 [6] = molecular target: T1, hEP4; test: FLIPR calcium signal, hEP4; format: cell-based; set-up: expressed in transfected cells; host or cells: HEK-293(EBNA); settings: HEK-293(EBNA) cells expressing hEP4/Gqs5
Experimental: Methods for FLIPR™ Studies
HEK-293(EBNA) cells, stably expressing one type or subtype of recombinant human prostaglandin receptors (prostaglandin receptors expressed: hDP/Gqs5; hEP1; hEP2/Gqs5; hEP3A/Gqi5; hEP4/Gqs5; hFP; hIP; hTP), were cultured in 100 mm culture dishes in high-glucose DMEM medium containing 10% fetal bovine serum, 2 mM 1-glutamine, 250 μg/ml geneticin (G418) and 200 μg/ml hygromycin B as selection markers, and 100 units/ml penicillin G, 100 μg/ml streptomycin and 0.25 μg/ml amphotericin B.
Cells were seeded at a density of 5×10^4 cells per well in Biocoat® Poly-D-lysine-coated black-wall, clear-bottom 96-well plates (Becton-Dickinson) and allowed to attach overnight in an incubator at 37° C. Cells were then washed two times with HBSS-HEPES buffer (Hanks Balanced Salt Solution without bicarbonate and phenol red, 20 mM HEPES, pH 7.4) using a Denley Cellwash plate washer (Labsystems). After 45 minutes of dye-loading in the dark, using the calcium-sensitive dye Fluo-4 AM at a final concentration of 2 μM, plates were washed four times with HBSS-HEPES buffer to remove excess dye leaving 100 μl in each well. Plates were re-equilibrated to 37° C. for a few minutes.
Cells were excited with an Argon laser at 488 nm, and emission was measured through a 510-570 nm bandwidth emission filter (FLIPR™, Molecular Devices, Sunnyvale, Calif.). Drug solution was added in a 50 μl volume to each well to give the desired final concentration. The peak increase in fluorescence intensity was recorded for each well. On each plate, four wells each served as negative (HBSS-HEPES buffer) and positive controls (standard agonists: BW245C (hDP); PGE2 (hEP1; hEP2/Gqs5; hEP3A/Gqi5; hEP4/Gqs5); PGF2α (hFP); carbacyclin (hIP); U-46619 (hTP), depending on receptor). The peak fluorescence change in each drug-containing well was then expressed relative to the controls.
Compounds were tested in a high-throughput (HTS) or concentration-response (CoRe) format. In the HTS format, forty-four compounds per plate were examined in duplicates at a concentration of 10^−5 M. To generate concentration-response curves, four compounds per plate were tested in duplicates in a concentration range between 10^−5 and 10^−11 M. The duplicate values were averaged. In either, HTS or CoRe format each compound was tested on at least 3 separate plates using cells from different passages to give an n≧3.

[7] = Canis lupus familiaris, topical, 120 h, 0.1%, read-out: maximum IOP decrease from baseline
[8] = Primates, topical, 0.1%, read-out: maximum IOP decrease from baseline
[9] = Canis lupus familiaris, topical, 120 h, 0.05%, read-out: maximum IOP decrease from baseline

Compound | maximum OSH score (normotensive dogs; 0.1%) | time of maximum OSH score (normotensive dogs; 0.1%) [h] | Ki (hEP4 [2]) [nM] | EC50 (hEP2 [3]) [nM] | EC50 (hEP2 [4]) [nM] | Ki (hEP2 [5]) [nM] | maximum IOP decrease from baseline (normotensive dogs; 0.1%) [mmHg] | time of maximum IOP decrease (normotensive dogs; 0.1%) [h] | change in vivo at 0.1 % (normotensive dogs; [7]) [%] | maximum IOP decrease from baseline ([1]; 0.1%) [mmHg] | time of maximum IOP decrease ([1]; 0.1%) [h] | change in vivo at 0.1 % [1, 8] [%] | other results
CC(C)OC(=O)CCC/C=C\C[C@@H]1[C@@H](COc2cc(Cl)cc(Cl)c2)[C@H](O)C[C@H]1Cl [Example 42b, (Z)-7-[(1R,2S,3R,5R)-5-Chloro-2-(3,5-dichloro-phenoxymethyl)-3-hydroxy-cyclopentyl]-hept-5-enoic acid isopropyl ester] |  |  |  |  |  |  |  |  |  |  |  |  | maximum IOP decrease from baseline (normotensive dogs; 0.05%): 3 mmHg; maximum OSH score (normotensive dogs; 0.05%): 0.6; time of maximum IOP decrease (normotensive dogs; 0.05%): 6 h; time of maximum OSH score (normotensive dogs; 0.05%): 74 h; change in vivo at 0.05 % (normotensive dogs; [9]): 19%; maximum IOP decrease from baseline ([1]; 0.01%): 6 mmHg; time of maximum IOP decrease ([1]; 0.01%): 6 h; change in vivo at 0.01 % ([1]; Primates, topical, 0.01%, read-out: maximum IOP decrease from baseline): 16%
CC(C)OC(=O)CCC/C=C\C[C@@H]1[C@@H](COc2cc(C(F)(F)F)cc(C(F)(F)F)c2)[C@H](O)C[C@H]1Cl [Example 42c, (Z)-7-[(1R,2S,3R,5R)-2-(3,5-Bis-trifluoromethyl-phenoxymethyl)-5-chloro-3-hydroxy-cyclopentyl]-hept-5-enoic acid isopropyl ester] |  |  |  |  |  |  |  |  |  |  |  |  | maximum IOP decrease from baseline (normotensive dogs; 0.03%): 2.3 mmHg; maximum OSH score (normotensive dogs; 0.03%): 0.7; time of maximum IOP decrease (normotensive dogs; 0.03%): 100 h; time of maximum OSH score (normotensive dogs; 0.03%): 78 h; change in vivo at 0.03 % (normotensive dogs; Canis lupus familiaris, topical, 120 h, 0.03%, read-out: maximum IOP decrease from baseline): 14%; maximum IOP decrease from baseline ([1]; 0.03%): 4 mmHg; time of maximum IOP decrease ([1]; 0.03%): 6 h; change in vivo at 0.03 % ([1]; Primates, topical, 0.03%, read-out: maximum IOP decrease from baseline): 11%
O=C(O)CCC/C=C\C[C@@H]1[C@@H](COc2ccc(CO)cc2)[C@H](O)C[C@H]1Cl [Example 43, (Z)-7-[(1R,2S,3R,5R)-5-Chloro-3-hydroxy-2-(4-hydroxymethyl-phenoxymethyl)-cyclopentyl]-hept-5-enoic acid] | 0.6 | 98 | > 10000 | 44 | 5 | 993 | 2.8 | 98 | 20 | 2 | 6 | 6 | 
O=C(O)CCC/C=C\C[C@@H]1[C@@H](COc2ccccc2CO)[C@H](O)C[C@H]1Cl [Example 55, (Z)-7-[(1R,2S,3R,5R)-5-Chloro-3-hydroxy-2-(2-hydroxymethyl-phenoxymethyl)-cyclopentyl]-hept-5-enoic acid] |  |  | 1520 | 9490 | 225 | 4120 |  |  |  |  |  |  | EC50 (hEP4 [6]): 12300 nM
Cc1ccc(C)c(OC[C@@H]2[C@@H](C/C=C\CCCC(=O)O)[C@H](Cl)C[C@H]2O)c1 [Example 34, (Z)-7-[(1R,2S,3R,5R)-5-Chloro-2-(2,5-dimethyl-phenoxymethyl)-3-hydroxy-cyclopentyl]-hept-5-enoic acid] |  |  | 1100 | 51 | 2.4 | 172 |  |  |  |  |  |  | EC50 (hEP4 [6]): > 10000 nM

Now from value to molecule, other results behind:

maximum OSH score (normotensive dogs; 0.1%) | time of maximum OSH score (normotensive dogs; 0.1%) [h] | Ki (hEP4 [2]) [nM] | EC50 (hEP2 [3]) [nM] | EC50 (hEP2 [4]) [nM] | Ki (hEP2 [5]) [nM] | Compound | maximum IOP decrease from baseline (normotensive dogs; 0.1%) [mmHg] | time of maximum IOP decrease (normotensive dogs; 0.1%) [h] | change in vivo at 0.1 % (normotensive dogs; [7]) [%] | maximum IOP decrease from baseline ([1]; 0.1%) [mmHg] | time of maximum IOP decrease ([1]; 0.1%) [h] | change in vivo at 0.1 % [1, 8] [%] | other results
0.9 | 74 |  |  |  |  | Cc1cc(C)cc(OC[C@@H]2[C@@H](C/C=C\CCCC(=O)OC(C)C)[C@H](Cl)C[C@H]2O)c1 [Example 42u, (Z)-7-[(1R,2S,3R,5R)-5-Chloro-2-(3,5-dimethyl-phenoxymethyl)-3-hydroxy-cyclopentyl]-hept-5-enoic acid isopropyl ester] | 4.3 | 30 | 30 | 8 | 6 | 23 | 
0.6 | 50 |  |  |  |  | CC(C)OC(=O)CCC/C=C\C[C@@H]1[C@@H](COc2cccc(C(F)(F)F)c2)[C@H](O)C[C@H]1Cl [Example 42i, (Z)-7-[(1R,2S,3R,5R)-5-Chloro-3-hydroxy-2-(3-trifluoromethyl-phenoxymethyl)-cyclopentyl]-hept-5-enoic acid isopropyl ester] | 2.7 | 2 | 19 | 4.7 | 6 | 14 | 
1.3 | 6 |  |  |  |  | O=C(O)CCC/C=C\C[C@@H]1[C@@H](COc2cc(Cl)cc(Cl)c2)[C@H](O)C[C@H]1Cl [Example 15b, (Z)-7-[(1R,2S,3R,5R)-5-Chloro-2-(3,5-dichloro-phenoxymethyl)-3-hydroxy-cyclopentyl]-hept-5-enoic acid] | 4.8 | 102 | 34 | 6 | 6 | 19 | maximum IOP decrease from baseline (normotensive dogs; 0.05%): 4.3 mmHg; maximum OSH score (normotensive dogs; 0.05%): 0.6; time of maximum IOP decrease (normotensive dogs; 0.05%): 6 h; time of maximum OSH score (normotensive dogs; 0.05%): 6 h; change in vivo at 0.05 % (normotensive dogs; [9]): 30%
0.6 | 30 |  |  |  |  | CC(C)OC(=O)CCC/C=C\C[C@@H]1[C@@H](COc2ccc(CO)cc2)[C@H](O)C[C@H]1Cl [Example 42bb, (Z)-7-[(1R,2S,3R,5R)-5-Chloro-3-hydroxy-2-(4-hydroxymethyl-phenoxymethyl)-cyclopentyl]-hept-5-enoic acid isopropyl ester] | 4.6 | 100 | 33 | 5.5 | 6 | 16 | 
